Data as given in US11617723B2, “Composition for hepatic arterial chemoembolization using human serum albumin nanoparticles carrying anticancer agent, and method for producing same” (SOGANG UNIVERSITY RESEARCH FOUNDATION, priority 2016, dated 2023).

Test: In vitro drug release behavior (dialysis membrane in phosphate buffer saline, 37° C.)
Format: physicochemical
Settings: 2000 Da dialysis membrane, PBS, 5 mg Adriamycin, FIG. 6
Protocol: In addition, the human serum albumin nanoparticles and lipiodol, which is an embolic material, are mixed in various ratios using the same method as that used in hepatic arterial chemoembolization to be changed into an emulsion form, and the released Adriamycin is quantitatively analyzed to measure drug release behaviors.
To analyze Adriamycin released from the Adriamycin-bound human serum albumin nanoparticles, 1 mL (Adriamycin content: 5 mg) of each of the prepared samples is injected into a 2000 Da dialysis membrane and completely sealed. The resulting structure is added to a tube containing 10 mL of phosphate buffer saline and shaken at 37° C., and the dialysis membrane is transferred to a tube containing 10 mL of phosphate buffer saline at a predetermined time point to obtain each sample every time point. Groups of prepared samples are as follows:
Group 1.—free Adriamycin in phosphate buffer saline (free DOX (PBS)) or contrast media (free DOX(Pamiray)) • free Adriamycin & lipiodol with volume ratio of 1:4 (free DOX (1:4)) • human serum albumin nanoparticles carrying Adriamycin in phosphate buffered saline (DOX-HSA-NPs (PBS)) or a contrast medium (DOX-HSA-NPs (Pamiray)) • human serum albumin nanoparticles carrying Adriamycin & lipiodol in a volume ratio of 1:4 (DOX-HSA-NPs (1:4)) […]

time of most release of the drug: ≤ 3 h
SMILES: COc1cccc2c1C(=O)c1c(O)c3c(c(O)c1C2=O)C[C@@](O)(C(=O)CO)C[C@@H]3O[C@H]1C[C@H](N)[C@H](O)[C@H](C)O1 [free DOX, Adriamycin]
